# Biological target: T1, T. maritima CopA (WT CopA) (Thermotoga maritima, UniProt Q9WYF3)
# T1 sequence (Q9WYF3 1-726): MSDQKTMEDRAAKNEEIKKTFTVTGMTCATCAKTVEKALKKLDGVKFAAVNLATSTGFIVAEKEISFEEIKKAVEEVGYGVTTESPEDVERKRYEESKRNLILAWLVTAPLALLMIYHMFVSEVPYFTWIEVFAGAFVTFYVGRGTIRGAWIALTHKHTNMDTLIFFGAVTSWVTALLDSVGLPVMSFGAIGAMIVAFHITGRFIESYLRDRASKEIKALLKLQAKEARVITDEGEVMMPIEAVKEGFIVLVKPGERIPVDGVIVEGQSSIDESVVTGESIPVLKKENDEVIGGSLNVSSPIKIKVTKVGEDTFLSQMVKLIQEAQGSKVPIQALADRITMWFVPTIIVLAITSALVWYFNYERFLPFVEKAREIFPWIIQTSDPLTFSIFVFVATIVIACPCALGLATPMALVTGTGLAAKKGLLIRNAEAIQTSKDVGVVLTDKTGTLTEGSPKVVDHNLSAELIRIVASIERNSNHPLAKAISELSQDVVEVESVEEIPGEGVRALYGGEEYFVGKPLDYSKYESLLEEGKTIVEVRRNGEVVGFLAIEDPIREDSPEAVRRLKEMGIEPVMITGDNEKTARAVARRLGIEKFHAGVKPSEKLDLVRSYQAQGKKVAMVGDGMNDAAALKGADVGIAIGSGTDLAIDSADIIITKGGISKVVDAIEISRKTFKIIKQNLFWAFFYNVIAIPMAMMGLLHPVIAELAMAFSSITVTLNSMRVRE
# Assay: phosphoenzyme
# Format: binding
compound,measurement,value
O=P(O)(O)O [Pi],Kd,3.3 µM

# — paper PMC2504886 (The Journal of Biological Chemistry, 2008)
